Literature values, collected in US20250241296A1, “HIGH-LOAD AGRICULTURAL FORMULATIONS AND METHODS OF MAKING SAME” (priority 2022, published 2025).

Tests used:
[1] = footnote a: values from the Chemistry Dashboard of the US Environmental Protection Agency
[2] = footnote a: values from the Chemistry Dashboard of the US Environmental Protection Agency; remark: listed apart in the source

| Molecule | Density [1] | Solubility in Water [2] |
| --- | --- | --- |
| Fc1ccc([C@]2(Cn3cncn3)O[C@H]2c2ccccc2Cl)cc1 (racemic) [Epoxiconazole] | 1.42^a g/mL |  |
| CO/C=C(/C(=O)OC)c1ccccc1Oc1cc(Oc2ccccc2C#N)ncn1 [Azoxystrobin] | 1.34^a g/mL | 6.01^a mg/L |
| COC(=O)Nc1nc2ccccc2[nH]1 [Carbendazim] | 1.39^a g/mL |  |
| CNC(=O)c1cc(Cl)cc(C)c1NC(=O)c1cc(Br)nn1-c1ncccc1Cl [Chlorantraniliprole] | 1.65^a g/mL |  |
| CNC(=O)c1cc(C#N)cc(C)c1NC(=O)c1cc(Br)nn1-c1ncccc1Cl [Cyantraniliprole] | 1.65^a g/mL |  |
| CC(C1CC1)C(O)(Cn1cncn1)c1ccc(Cl)cc1 (stereo not drawn) [Cyproconazole] | 1.31^a g/mL |  |
| O=[N+]([O-])c1cc(C(F)(F)F)c(Cl)c([N+](=O)[O-])c1Nc1ncc(C(F)(F)F)cc1Cl [Fluazinam] | 1.80^a g/mL |  |
| Cc1cc(C(F)(C(F)(F)F)C(F)(F)F)ccc1NC(=O)c1cccc(I)c1C(=O)NC(C)(C)CS(C)(=O)=O [Flubendiamide] | 1.78^a g/mL |  |
| N#Cc1c[nH]cc1-c1cccc2c1OC(F)(F)O2 [Fludioxinil] | 1.54^a g/mL |  |
| N#Cc1ccccc1NC(=O)c1snc(Cl)c1Cl [Isotianil] | 1.56^a g/mL |  |
| COCC(=O)N(c1c(C)cccc1C)[C@H](C)C(=O)OC [Metalaxyl-M] | 1.09^a g/mL |  |
| CNC(=O)/C(=N/OC)c1ccccc1Oc1ccccc1 [Metominostrobin] | 1.13^a g/mL |  |
| Cc1nn(C)c(F)c1C(=O)Nc1ccccc1C(C)CC(C)C (stereo not drawn) [Penflufen] | 1.18^a g/mL |  |
| CO/C=C(/C(=O)OC)c1ccccc1COc1cccc(C(F)(F)F)n1 [Picoxystrobin] | 1.28^a g/mL | 8.30^a mg/L |
| CC12CC1(C)C(=O)N(c1cc(Cl)cc(Cl)c1)C2=O (stereo not drawn) [Procymidone] | 1.43^a g/mL |  |
| CCCC1COC(Cn2cncn2)(c2ccc(Cl)cc2Cl)O1 (stereo not drawn) [Propiconazole] | 1.39^a g/mL |  |
| COC(=O)N(OC)c1ccccc1COc1ccn(-c2ccc(Cl)cc2)n1 [Pyraclostrobin] | 1.34^a g/mL |  |
| CC(c1ccc(C(F)(F)F)nc1)S(C)(=O)=NC#N (stereo not drawn) [Sulfoxaflor] | 1.34^a g/mL |  |
| CN1COCN(Cc2cnc(Cl)s2)/C1=N\[N+](=O)[O-] [Thiamethoxam] | 1.76^a g/mL |  |
| Abamectin | 1.28^a g/mL | 36.4^a mg/L |
| Spinetoram | 1.18^a g/mL | 162^a mg/L |
| Spinosad | 1.20^a g/mL | 295^a mg/L |
